Results taken from ChEMBL document CHEMBL5143732 (J Med Chem, 2022).
Values after ≈ are worked out from the molar mass of the structure shown. Active and inactive are the calls of the source. No cut-off for these calls is given here.

Legend:
[1] = test system: Candida tropicalis; test: Antifungal activity against Candida tropicalis assessed as inhibition of fungal growth measured after 48 hrs by CLSI based agar dilution method; assay type: functional
[2] = AUClast in ICR (CD-1) mouse at 1 mg/kg, iv measured upto 24 hrs; assay type: ADME, organism-based; set-up: dose 1 mg/kg, time < 24 hrs, route iv; details: in vivo; for AUC(0-t) at 24 h: ICR (CD-1)
[3] = Elimination half life in ICR (CD-1) mouse at 1 mg/kg, iv measured upto 24 hrs; assay type: ADME, organism-based; details: in vivo, read-out: beta t1/2 (converted)
[4] = test system: Candida albicans; test: Antifungal activity against Candida albicans assessed as inhibition of fungal growth measured after 48 hrs by CLSI based agar dilution method; assay type: functional
[5] = test system: Cryptococcus neoformans; test: Antifungal activity against Cryptococcus neoformans ATCC 32609 assessed as inhibition of fungal growth measured after 48 hrs by CLSI based agar dilution method; assay type: functional
[6] = test system: Candida parapsilosis; test: Antifungal activity against Candida parapsilosis assessed as inhibition of fungal growth measured after 48 hrs by CLSI based agar dilution method; assay type: functional; details: Lodderomyces parapsilosis
[7] = Observed clearance in ICR (CD-1) mouse at 1 mg/kg, iv measured upto 24 hrs; assay type: ADME, organism-based; set-up: dose 1 mg/kg, time < 24 hrs, route iv; details: in vivo
[8] = Observed MRT infinity in ICR (CD-1) mouse at 1 mg/kg, iv measured upto 24 hrs; assay type: ADME, organism-based; details: in vivo
[9] = Observed AUC infinity in ICR (CD-1) mouse at 1 mg/kg, iv measured upto 24 hrs; assay type: ADME, organism-based; set-up: dose 1 mg/kg, time < 24 hrs, route iv; details: in vivo; for AUC(0-inf): ICR (CD-1)
[10] = test system: Pichia kudriavzevii; test: Antifungal activity against Candida krusei assessed as inhibition of fungal growth measured after 48 hrs by CLSI based agar dilution method; assay type: functional
[11] = test system: Pichia kudriavzevii; test: Antifungal activity against Candida krusei ATCC 6258 assessed as inhibition of fungal growth measured after 48 hrs by CLSI based agar dilution method; assay type: functional
[12] = Hemolytic activity in human RBC measured after 1 hr; assay type: toxicity, cell-based, Erythrocyte; details: red blood cells (erythrocytes)
[13] = Observed volume of distribution at steady state in ICR (CD-1) mouse at 1 mg/kg, iv measured upto 24 hrs; assay type: ADME, organism-based; details: in vivo, read-out: Vdss
[14] = Therapeutic index ratio of MTD for acute toxicity in iv dosed SPF ICR mouse to ED50 for antifungal activity against Candida albicans ATTCC 14053 infected in SPF kunming mouse; assay type: organism-based; details: in vivo, read-out: TI
[15] = Acute toxicity in iv dosed SPF ICR mouse assessed as maximum tolerated measured for 14 days; assay type: organism-based; details: in vivo, dose 30 mg/kg, time 14 day
[16] = test system: Candida albicans; test: Antifungal activity against Candida albicans ATTCC 14053 infected in SPF Kunming mouse assessed as increase in mouse survival pre-infected for 1 hr followed by compound addition and measured after 7 to 14 days; assay type: functional; details: time 7-14 day
[17] = test system: Lipid bilayer; test: Induction of membrane disruption in inner membrane mimic POPC/ergosterol (10:1) large unilamellar vesicles assessed as change in liposomal integrity by transmission electron microscopic analysis; assay type: cell membranes
[18] = test system: Lipid bilayer; test: Induction of membrane disruption in inner membrane mimic POPC/ergosterol (10:1) large unilamellar vesicles assessed as change in morphology by transmission electron microscopic analysis; assay type: cell membranes
[19] = route iv, dose 1 mg/kg, time < 24 hrs, read-out: CL

MIC [1] | AUC(0-t) at 24 h [2] | half-life [3] | MIC [4] | MIC [5] | MIC [6] | clearance [7, 19] | MRT inf [8] | AUC(0-inf) [9] | MIC [10] | MIC [11] | Vd [13] | SMILES | HC50 at 1 h [12] | other results
0.03 µg/mL (≈ 0.0293 µM) | 11500 ng·h/mL | 18.2 h | < 0.008 µg/mL | < 0.008 µg/mL | 0.015 µg/mL (≈ 0.0147 µM) | 0.913 mL/min/kg | 24.9 h | 18300 ng·h/mL | 0.06 µg/mL (≈ 0.0586 µM) | 0.5 µg/mL (≈ 0.489 µM) | 1.37 L/kg | C[C@@H]1[C@H](O)[C@@H](C)/C=C/C=C/C=C/C=C/C=C/C=C/C=C/[C@H](O[C@@H]2O[C@H](C)[C@@H](O)[C@H](NC(=O)CN)[C@@H]2O)C[C@@H]2O[C@](O)(C[C@@H](O)C[C@@H](O)[C@H](O)CC[C@@H](O)C[C@@H](O)CC(=O)O[C@H]1C)C[C@H](O)[C@H]2C(=O)NCCN | 18.2 µM | 
1 µg/mL (≈ 0.903 µM) | 4890 ng·h/mL | 11.2 h | 0.5 µg/mL (≈ 0.452 µM) | 0.25 µg/mL (≈ 0.226 µM) | 0.5 µg/mL (≈ 0.452 µM) | 2.7 mL/min/kg | 15.3 h | 6210 ng·h/mL | 0.5 µg/mL (≈ 0.452 µM) | 8 µg/mL (≈ 7.22 µM) | 2.48 L/kg | C[C@@H]1[C@H](O)[C@@H](C)/C=C/C=C/C=C/C=C/C=C/C=C/C=C/[C@H](O[C@@H]2O[C@H](C)[C@@H](O)[C@H](NC(=O)CCN)[C@@H]2O)C[C@@H]2O[C@](O)(C[C@@H](O)C[C@@H](O)[C@H](O)CC[C@@H](O)C[C@@H](O)CC(=O)O[C@H]1C)C[C@H](O)[C@H]2C(=O)N1CCN(CCO)CC1 | 24.4 µM | 
1 µg/mL (≈ 0.879 µM) |  |  | 1 µg/mL (≈ 0.879 µM) | 0.5 µg/mL (≈ 0.44 µM) | 0.25 µg/mL (≈ 0.22 µM) |  |  |  | 1 µg/mL (≈ 0.879 µM) | 2 µg/mL (≈ 1.76 µM) |  | CNCC(=O)N[C@@H]1[C@H](O)[C@H](O[C@H]2/C=C/C=C/C=C/C=C/C=C/C=C/C=C/[C@H](C)[C@@H](O)[C@@H](C)[C@H](C)OC(=O)C[C@H](O)C[C@H](O)CC[C@@H](O)[C@H](O)C[C@H](O)C[C@]3(O)C[C@H](O)[C@@H](C(=O)N4CCN(CC(O)CO)CC4)[C@H](C2)O3)O[C@H](C)[C@H]1O (stereo not given in full) | 9.06 µM | 
2 µg/mL (≈ 2.04 µM) |  |  | 0.25 µg/mL (≈ 0.255 µM) | 0.125 µg/mL (≈ 0.128 µM) | 1 µg/mL (≈ 1.02 µM) |  |  |  | 0.125 µg/mL (≈ 0.128 µM) | 1 µg/mL (≈ 1.02 µM) |  | CC(=O)NNC(=O)[C@H]1[C@@H]2C[C@@H](O[C@@H]3O[C@H](C)[C@@H](O)[C@H](N)[C@@H]3O)/C=C/C=C/C=C/C=C/C=C/C=C/C=C/[C@H](C)[C@@H](O)[C@@H](C)[C@H](C)OC(=O)C[C@H](O)C[C@H](O)CC[C@@H](O)[C@H](O)C[C@H](O)C[C@](O)(C[C@@H]1O)O2 | 5.61 µM | 
0.5 µg/mL (≈ 0.475 µM) |  |  | 0.125 µg/mL (≈ 0.119 µM) | 0.25 µg/mL (≈ 0.238 µM) | 0.5 µg/mL (≈ 0.475 µM) |  |  |  | 0.5 µg/mL (≈ 0.475 µM) | 0.25 µg/mL (≈ 0.238 µM) |  | CNCC(=O)N[C@@H]1[C@H](O)[C@H](O[C@H]2/C=C/C=C/C=C/C=C/C=C/C=C/C=C/[C@H](C)[C@@H](O)[C@@H](C)[C@H](C)OC(=O)C[C@H](O)C[C@H](O)CC[C@@H](O)[C@H](O)C[C@H](O)C[C@]3(O)C[C@H](O)[C@@H](C(=O)NCCCO)[C@H](C2)O3)O[C@H](C)[C@H]1O | 6.24 µM | 
0.25 µg/mL (≈ 0.229 µM) | 3060 ng·h/mL | 7.72 h | 0.25 µg/mL (≈ 0.229 µM) | 0.25 µg/mL (≈ 0.229 µM) | 0.5 µg/mL (≈ 0.457 µM) | 4.85 mL/min/kg | 10.5 h | 3440 ng·h/mL | 0.25 µg/mL (≈ 0.229 µM) | 8 µg/mL (≈ 7.32 µM) | 3.06 L/kg | C[C@@H]1[C@H](O)[C@@H](C)/C=C/C=C/C=C/C=C/C=C/C=C/C=C/[C@H](O[C@@H]2O[C@H](C)[C@@H](O)[C@H](NC(=O)CN)[C@@H]2O)C[C@@H]2O[C@](O)(C[C@@H](O)C[C@@H](O)[C@H](O)CC[C@@H](O)C[C@@H](O)CC(=O)O[C@H]1C)C[C@H](O)[C@H]2C(=O)N1CCN(CCO)CC1 | 30.6 µM | 
1 µg/mL (≈ 0.881 µM) | 10700 ng·h/mL | 16.4 h | 1 µg/mL (≈ 0.881 µM) | 1 µg/mL (≈ 0.881 µM) | 1 µg/mL (≈ 0.881 µM) | 0.95 mL/min/kg | 25.4 h | 17700 ng·h/mL | 1 µg/mL (≈ 0.881 µM) | 4 µg/mL (≈ 3.52 µM) | 1.44 L/kg | CNCC(=O)N[C@@H]1[C@H](O)[C@H](O[C@H]2/C=C/C=C/C=C/C=C/C=C/C=C/C=C/[C@H](C)[C@@H](O)[C@@H](C)[C@H](C)OC(=O)C[C@H](O)C[C@H](O)CC[C@@H](O)[C@H](O)C[C@H](O)C[C@]3(O)C[C@H](O)[C@@H](C(=O)N4CCN(C(C)(C)CO)CC4)[C@H](C2)O3)O[C@H](C)[C@H]1O | 50.7 µM | 

Further lines, the molecule ahead of its results:

SMILES | MIC [1] | AUC(0-t) at 24 h [2] | half-life [3] | MIC [4] | MIC [5] | MIC [6] | clearance [7, 19] | MRT inf [8] | AUC(0-inf) [9] | MIC [10] | MIC [11] | Vd [13] | HC50 at 1 h [12] | other results
C[C@@H]1[C@H](O)[C@@H](C)/C=C/C=C/C=C/C=C/C=C/C=C/C=C/[C@H](O[C@@H]2O[C@H](C)[C@@H](O)[C@H](N)[C@@H]2O)C[C@@H]2O[C@](O)(C[C@@H](O)C[C@@H](O)[C@H](O)CC[C@@H](O)C[C@@H](O)CC(=O)O[C@H]1C)C[C@H](O)[C@H]2C(=O)NCCN |  | 11600 ng·h/mL | 17.5 h |  |  |  | 0.896 mL/min/kg | 25.3 h | 18900 ng·h/mL |  |  | 1.33 L/kg |  | selectivity ratio [14]: 23.4; MTD at 336 h [15]: 7.5 mg/kg; ED50 [16]: 0.32 mg/kg
C[C@@H]1[C@H](O)[C@@H](C)/C=C/C=C/C=C/C=C/C=C/C=C/C=C/[C@H](O[C@@H]2O[C@H](C)[C@@H](O)[C@H](N)[C@@H]2O)C[C@@H]2O[C@](O)(C[C@@H](O)C[C@@H](O)[C@H](O)CC[C@@H](O)C[C@@H](O)CC(=O)O[C@H]1C)C[C@H](O)[C@H]2C(=O)O [AMPHOTERICIN B] | 1 µg/mL (≈ 1.08 µM) |  | 19.2 h | 0.5 µg/mL (≈ 0.541 µM) |  | 0.25 µg/mL (≈ 0.271 µM) |  | 28.8 h |  |  |  | 6.42 L/kg | 4.13 µM | AUClast ([2]; 24 h): 2488 ng·h/mL; clearance ([7]; iv, 1 mg/kg, read-out: AUC): 4.02 mL/min/kg; AUC ([9]; 24 h): 4476 ng·h/mL; MTD at 336 h [15]: 2.01 mg/kg; ED50 [16]: 1.08 mg/kg
CNCC(=O)N[C@@H]1[C@H](O)[C@H](O[C@H]2/C=C/C=C/C=C/C=C/C=C/C=C/C=C/[C@H](C)[C@@H](O)[C@@H](C)[C@H](C)OC(=O)C[C@H](O)C[C@H](O)CC[C@@H](O)[C@H](O)C[C@H](O)C[C@]3(O)C[C@H](O)[C@@H](C(=O)NCCN)[C@H](C2)O3)O[C@H](C)[C@H]1O |  |  |  |  |  |  |  |  |  |  |  |  |  | Activity [17]: Active; Activity [18]: Active
CCOC(=O)NNC(=O)[C@H]1[C@@H]2C[C@@H](O[C@@H]3O[C@H](C)[C@@H](O)[C@H](N)[C@@H]3O)/C=C/C=C/C=C/C=C/C=C/C=C/C=C/[C@H](C)[C@@H](O)[C@@H](C)[C@H](C)OC(=O)C[C@H](O)C[C@H](O)CC[C@@H](O)[C@H](O)C[C@H](O)C[C@](O)(C[C@@H]1O)O2 | 2 µg/mL (≈ 1.98 µM) |  |  | 0.25 µg/mL (≈ 0.247 µM) | 0.06 µg/mL (≈ 0.0594 µM) | 2 µg/mL (≈ 1.98 µM) |  |  |  | 0.25 µg/mL (≈ 0.247 µM) | 0.5 µg/mL (≈ 0.495 µM) |  | 6.29 µM | 
COC(=O)NNC(=O)[C@H]1[C@@H]2C[C@@H](O[C@@H]3O[C@H](C)[C@@H](O)[C@H](N)[C@@H]3O)/C=C/C=C/C=C/C=C/C=C/C=C/C=C/[C@H](C)[C@@H](O)[C@@H](C)[C@H](C)OC(=O)C[C@H](O)C[C@H](O)CC[C@@H](O)[C@H](O)C[C@H](O)C[C@](O)(C[C@@H]1O)O2 | 0.5 µg/mL (≈ 0.502 µM) |  |  | 0.015 µg/mL (≈ 0.0151 µM) | 0.125 µg/mL (≈ 0.125 µM) | 0.5 µg/mL (≈ 0.502 µM) |  |  |  | 0.015 µg/mL (≈ 0.0151 µM) | 0.25 µg/mL (≈ 0.251 µM) |  | 5.69 µM | 
